In ChEMBL document CHEMBL3046607, “Synthesis and Herbicidal Activity of New 1-Alkyl-3-aryloxypyrazole-4-carboxamide Derivatives” (J Pestic Sci, 2004):
Activity calls are given as the source filed them. The calls are words filed in the database; no cut-off is given here.

Assays:
Rotala indica [1] = test: Post-emergence herbicidal activity against Rotala indica assessed as bleaching of stem/leaf parts; format: functional, organism-based
Lindernia procumbens [2] = test: Post-emergence herbicidal activity against Lindernia procumbens assessed as bleaching of stem/leaf parts; format: functional, organism-based; further: test concentration or dose not given here
Pontederia vaginalis [3] = test: Pre-emergence herbicidal activity against Monochoria vaginalis assessed as bleaching of stem/leaf parts; format: functional, organism-based
Ammannia multiflora [4] = test: Pre-emergence herbicidal activity against Ammannia multiflora at 33 g a.i/ha measured after 14 days; format: functional, organism-based
Oryza sativa = test: Phytotoxicity against Oryza sativa cv. Koshihikari (rice) at 33 g a.i/ha measured after 14 days; format: organism-based; conditions: in vivo, 336 h
Rotala indica [5] = test: Pre-emergence herbicidal activity against Rotala indica assessed as bleaching of stem/leaf parts; format: functional, organism-based
Echinochloa oryzicola [6] = test: Post-emergence herbicidal activity against Echinochloa oryzicola assessed as bleaching of stem/leaf parts; format: functional, organism-based
Echinochloa oryzicola [7] = test: Pre-emergence herbicidal activity against Echinochloa oryzicola at 33 g a.i/ha measured after 14 days; format: functional, organism-based
Ammannia multiflora [8] = test: Pre-emergence herbicidal activity against Ammannia multiflora assessed as bleaching of stem/leaf parts; format: functional, organism-based
Pontederia vaginalis [9] = test: Pre-emergence herbicidal activity against Monochoria vaginalis at 33 g a.i/ha measured after 14 days; format: functional, organism-based
Ammannia multiflora [10] = test: Post-emergence herbicidal activity against Ammannia multiflora assessed as bleaching of stem/leaf parts; format: functional, organism-based
Echinochloa oryzicola [11] = test: Pre-emergence herbicidal activity against Echinochloa oryzicola assessed as bleaching of stem/leaf parts; format: functional, organism-based
Lindernia procumbens [12] = test: Pre-emergence herbicidal activity against Lindernia procumbens assessed as bleaching of stem/leaf parts; format: functional, organism-based
Cyperus difformis [13] = test: Pre-emergence herbicidal activity against Cyperus difformis assessed as bleaching of stem/leaf parts; format: functional, organism-based
[14] = tested on: Schoenoplectiella juncoides; test: Pre-emergence herbicidal activity against Schoenoplectiella juncoides assessed as bleaching of stem/leaf parts; format: functional, organism-based
Cyperus difformis [15] = test: Post-emergence herbicidal activity against Cyperus difformis assessed as bleaching of stem/leaf parts; format: functional, organism-based; further: test concentration or dose not given here
Elatine triandra [16] = test: Pre-emergence herbicidal activity against Elatine triandra at 33 g a.i/ha measured after 14 days; format: functional, organism-based
Lindernia procumbens [17] = test: Pre-emergence herbicidal activity against Lindernia procumbens at 33 g a.i/ha measured after 14 days; format: functional, organism-based
Cyperus difformis [18] = test: Pre-emergence herbicidal activity against Cyperus difformis at 33 g a.i/ha measured after 14 days; format: functional, organism-based
[19] = tested on: Schoenoplectiella juncoides; test: Pre-emergence herbicidal activity against Schoenoplectiella juncoides at 33 g a.i/ha measured after 14 days; format: functional, organism-based
Rotala indica [20] = test: Pre-emergence herbicidal activity against Rotala indica at 33 g a.i/ha measured after 14 days; format: functional, organism-based
Elatine triandra [21] = test: Pre-emergence herbicidal activity against Elatine triandra assessed as bleaching of stem/leaf parts; format: functional, organism-based
Elatine triandra [22] = test: Post-emergence herbicidal activity against Elatine triandra assessed as bleaching of stem/leaf parts; format: functional, organism-based; further: test concentration or dose not given here
[23] = tested on: Schoenoplectiella juncoides; test: Post-emergence herbicidal activity against Schoenoplectiella juncoides assessed as bleaching of stem/leaf parts; format: functional, organism-based; further: test concentration or dose not given here
Pontederia vaginalis [24] = test: Post-emergence herbicidal activity against Monochoria vaginalis assessed as bleaching of stem/leaf parts; format: functional, organism-based

SMILES: Cn1cc(C(=O)Nc2ccccc2F)c(Oc2cccc(C(F)(F)F)c2)n1
- Activity (Rotala indica [1]): Active
- Activity (Lindernia procumbens [2]): Active
- Activity (Pontederia vaginalis [3]): Active
- Activity (Ammannia multiflora [4]): Active
- Activity (Oryza sativa): Non-toxic
- Activity (Rotala indica [5]): Active
- Activity (Echinochloa oryzicola [6]): Active
- Activity (Echinochloa oryzicola [7]): Active
- Activity (Ammannia multiflora [8]): Active
- Activity (Pontederia vaginalis [9]): Active
- Activity (Ammannia multiflora [10]): Active
- Activity (Echinochloa oryzicola [11]): Active
- Activity (Lindernia procumbens [12]): Active
- Activity (Cyperus difformis [13]): Active
- Activity [14]: Active
- Activity (Cyperus difformis [15]): Active
- Activity (Elatine triandra [16]): Active
- Activity (Lindernia procumbens [17]): Active
- Activity (Cyperus difformis [18]): Active
- Activity [19]: inactive
- Activity (Rotala indica [20]): Active
- Activity (Elatine triandra [21]): Active
- Activity (Elatine triandra [22]): Active
- Activity [23]: Active
- Activity (Pontederia vaginalis [24]): Active

SMILES: CC(C)n1cc(C(=O)Nc2ccc(F)cc2F)c(Oc2cccc(C(F)(F)F)c2)n1
- Activity (Rotala indica [1]): Active
- Activity (Lindernia procumbens [2]): Active
- Activity (Pontederia vaginalis [3]): Active
- Activity (Ammannia multiflora [4]): inactive
- Activity (Oryza sativa): Non-toxic
- Activity (Rotala indica [5]): Active
- Activity (Echinochloa oryzicola [6]): Active
- Activity (Echinochloa oryzicola [7]): inactive
- Activity (Ammannia multiflora [8]): Active
- Activity (Pontederia vaginalis [9]): inactive
- Activity (Ammannia multiflora [10]): Active
- Activity (Echinochloa oryzicola [11]): Active
- Activity (Lindernia procumbens [12]): Active
- Activity (Cyperus difformis [13]): Active
- Activity [14]: Active
- Activity (Cyperus difformis [15]): Active
- Activity (Elatine triandra [16]): inactive
- Activity (Lindernia procumbens [17]): inactive
- Activity (Cyperus difformis [18]): inactive
- Activity [19]: inactive
- Activity (Rotala indica [20]): inactive
- Activity (Elatine triandra [21]): Active
- Activity (Elatine triandra [22]): Active
- Activity [23]: Active
- Activity (Pontederia vaginalis [24]): Active

SMILES: Cn1cc(C(=O)Nc2ccc(Cl)cc2Cl)c(Oc2cccc(C(F)(F)F)c2)n1
- Activity (Rotala indica [1]): Active
- Activity (Lindernia procumbens [2]): Active
- Activity (Pontederia vaginalis [3]): Active
- Activity (Ammannia multiflora [4]): Active
- Activity (Oryza sativa): Non-toxic
- Activity (Rotala indica [5]): Active
- Activity (Echinochloa oryzicola [6]): Active
- Activity (Echinochloa oryzicola [7]): inactive
- Activity (Ammannia multiflora [8]): Active
- Activity (Pontederia vaginalis [9]): Active
- Activity (Ammannia multiflora [10]): Active
- Activity (Echinochloa oryzicola [11]): Active
- Activity (Lindernia procumbens [12]): Active
- Activity (Cyperus difformis [13]): Active
- Activity [14]: Active
- Activity (Cyperus difformis [15]): Active
- Activity (Elatine triandra [16]): Active
- Activity (Lindernia procumbens [17]): Active
- Activity (Cyperus difformis [18]): Active
- Activity [19]: inactive
- Activity (Rotala indica [20]): Active
- Activity (Elatine triandra [21]): Active
- Activity (Elatine triandra [22]): Active
- Activity [23]: Active
- Activity (Pontederia vaginalis [24]): Active

SMILES: Cn1cc(C(=O)Nc2ccc(F)c(F)c2F)c(Oc2cccc(C(F)(F)F)c2)n1
- Activity (Rotala indica [1]): Active
- Activity (Lindernia procumbens [2]): Active
- Activity (Pontederia vaginalis [3]): Active
- Activity (Ammannia multiflora [4]): Active
- Activity (Oryza sativa): Non-toxic
- Activity (Rotala indica [5]): Active
- Activity (Echinochloa oryzicola [6]): Active
- Activity (Echinochloa oryzicola [7]): Active
- Activity (Ammannia multiflora [8]): Active
- Activity (Pontederia vaginalis [9]): Active
- Activity (Ammannia multiflora [10]): Active
- Activity (Echinochloa oryzicola [11]): Active
- Activity (Lindernia procumbens [12]): Active
- Activity (Cyperus difformis [13]): Active
- Activity [14]: Active
- Activity (Cyperus difformis [15]): Active
- Activity (Elatine triandra [16]): Active
- Activity (Lindernia procumbens [17]): Active
- Activity [19]: Active
- Activity (Rotala indica [20]): Active
- Activity (Elatine triandra [21]): Active
- Activity (Elatine triandra [22]): Active
- Activity [23]: Active
- Activity (Pontederia vaginalis [24]): Active
